Species: Cavia porcellus
Assay: Inhibitory activity against Na+/[Ca2+] exchanger after 30 min of K+ free incubation in isolated left atria from guinea pig

| SMILES | IC30 |
| --- | --- |
| O=C1Nc2ccccc2C(c2ccccc2)N1C1CCN(CC2CCCCC2)CC1 (stereo not drawn) | 4000 nM |
| CN(C)CCCN1C(=O)N(C)c2ccc(Cl)cc2C1c1ccccc1 (stereo not drawn) | > 10000 nM |
| CCCN1CCC(N2C(=O)Nc3ccccc3C2c2ccccc2)CC1 (stereo not drawn) | 93 nM |
| O=C1Nc2ccccc2C(c2ccccc2)N1C1CCN(CCc2ccccc2)CC1 (stereo not drawn) | 3600 nM |
| CN(C)CCCN1C(=O)Nc2ccc(Cl)cc2C1c1ccco1 (stereo not drawn) | 690 nM |
| CCN1CCC(N2C(=O)Nc3ccccc3C2c2ccccc2)CC1 (stereo not drawn) | 53 nM |
| CN(C)CCCN1C(=O)Nc2ccccc2C1C1CCCCC1 (stereo not drawn) | 570 nM |
| O=C1Nc2ccccc2C(c2ccccc2)N1C1CCNCC1 (stereo not drawn) | 1100 nM |
| O=C1Nc2ccccc2C(c2ccccc2)N1C1CCN(Cc2ccccc2)CC1 (stereo not drawn) | 17 nM |
| CN1CCC(N2C(=O)Nc3ccccc3C2c2ccccc2)CC1 (stereo not drawn) | 87 nM |

More lines, now with the values ahead:

| IC30 | SMILES |
| --- | --- |
| > 10000 nM | CC(C)CCCN1C(=O)Nc2ccccc2C1c1ccccc1 (stereo not drawn) |
| 5300 nM | CC1c2ccccc2NC(=O)N1CCCN(C)C (stereo not drawn) |
| 69 nM | CCN(CC)CCN1C(=O)Nc2ccccc2C1c1ccccc1 (stereo not drawn) |
| 350 nM | CN(C)CCCN1C(=O)Nc2ccccc2C1c1ccccc1 (stereo not drawn) |
| > 10000 nM | CCN(CC)C(=O)CN1C(=O)Nc2ccccc2C1c1ccccc1 (stereo not drawn) |
| 720 nM | CN(C)CCCN1C(=O)Nc2ccccc2C1c1cccs1 (stereo not drawn) |
| > 10000 nM | CCOCCN1C(=O)Nc2ccccc2C1c1ccccc1 (stereo not drawn) |
| 3800 nM | CN(C)CCCN1C(S)=Nc2ccccc2C1c1ccccc1 (stereo not drawn) |
| 40 nM | CCN(CC)CCCN1C(=O)Nc2ccccc2C1c1ccccc1 (stereo not drawn) |
| 580 nM | CCNCCN1C(=O)Nc2ccccc2C1c1ccccc1 (stereo not drawn) |
| 510 nM | CN(C)CCCN1C(=O)Nc2ccccc2C1c1ccccn1 (stereo not drawn) |
| > 10000 nM | CN(C)CCCN1C(=O)Nc2ccccc2C1Cc1ccccc1 (stereo not drawn) |
| 1900 nM | CCN(CC)CCCCN1C(=O)Nc2ccccc2C1c1ccccc1 (stereo not drawn) |
| 460 nM | CN(C)CCCN1C(=O)Nc2ccc(Cl)cc2C1c1ccccc1 (stereo not drawn) |
| > 10000 nM | NCCN1C(=O)Nc2ccccc2C1c1ccccc1 (stereo not drawn) |

System: not listed separately
Assay: pKa value was determined
Type: physicochemical

| pKa | SMILES |
| --- | --- |
| 10.2 | CCN(CC)CCN1C(=O)Nc2ccccc2C1c1ccccc1 (stereo not drawn) |
| -0.58 | CCN(CC)C(=O)CN1C(=O)Nc2ccccc2C1c1ccccc1 (stereo not drawn) |

Species: Cavia porcellus
Assay: Inhibitory activity (1 uM) against Na+/[Ca2+] exchanger after 30 min of K+ free incubation in isolated left atria from guinea pig
Type: functional

| SMILES | Inhibition |
| --- | --- |
| CCOc1ccc(Oc2ccc(OCc3cc(F)ccc3F)cc2)c(N)c1 | > 80% |

Reference: ChEMBL document CHEMBL1136285, “Discovery of a novel potent Na+/Ca2+ exchanger inhibitor: design, synthesis and structure-activity relationships of 3,4-dihydro-2(1H)-quinazolinone derivatives” (Bioorg Med Chem Lett, 2003)
